Read-outs that look alike come from different tables or passages of the source. One block for each compound: values may come before it.
Columns and labels:
Test in all cases: Cell growth inhibition assay (Cell Titer Glo, 3 days)
Type in all cases: cell-based, Human
NCI-H1395 = NCI-H1395 (BRAF_G469A), single agent, mean ± std
Procedure: (§1) Human tumor cell lines from lung cancer, A427, A549, Calu1, Calu3, Calu6, COR-L23, HOP62, MV522, NCI-H1155, NCI-H1299, NCI-H1355, NCI-H1395, NCI-H157, NCI-H1573, NCI-H1666, NCI-1755, NCI-H1792, NCI-2009, NCI-H2030, NCI-H2122, NCI-H2291, NCI-H23, NCI-H2347, NCI-H358, NCI-H441, NCI-H460, NCI-H650, NCI-H727, SW1573 and SW900 were cultured in RPMI 1640 medium containing 10% fetal bovine serum (FBS). Cell line mutation data was collated for the status for the RAS and RAF genes. The data source is the cancer cell line mutation screening data published as part of the Catalog of Somatic Mutations in Cancer database (COSMIC) (Bamford S. et al. Br. J. Cancer. 2004. 91:355-58) and/or in house DNA sequencing.
(§2) Cells were seeded in a 96-well tissue culture plate (NUNC 136102) of RPMI medium containing 10% FBS at 500-2,000 cells per well. Approximately 24 hours after plating, cells were exposed to ten, two-fold or three-fold serial dilutions of either Compound A or B or the combination of the two agents at a 10:1 molar ratio (Compounds A and B respectively). The final dosing concentration range for Compound A was 2-1000 nM and was 0.2-100 nM for Compound B. Cells were incubated in the presence of compounds for 3 days. ATP levels were determined by adding Cell Titer Glo® (Promega) according to the manufacturer's protocol. Briefly, Cell Titer Glo® was added to each plate, incubated for 20 minutes then luminescent signal was read on the SpectraMax L plate reader with a 0.5 sec integration time. All assays were run at least in duplicate.
(§3) Inhibition of cell growth was estimated after treatment with compound or combination of compounds for three days and comparing the signal to cells treated with vehicle (DMSO). Cell growth was calculated relative to vehicle (DMSO) treated control wells. Concentration of compound that inhibits 50% of control cell growth (IC50) was back-interpolated when y=50% of DMSO treated control wells using nonlinear regression with the equation: […]

NCI-H2347 = NCI-H2347 (RAS_H, N_Q61R), single agent, mean ± std
Procedure: as §1, §2, §3

NCI-H441 = NCI-H441 (KRAS_G12V), single agent, mean ± std
Procedure: as §1, §2, §3

NCI-H1792 = NCI-H1792 (KRAS_G12C), single agent, mean ± std
Procedure: as §1, §2, §3

NCI-H1755 = NCI-H1755 (BRAF_G469A), single agent, mean ± std
Procedure: as §1, §2, §3

Calu6 = Calu6 (KRAS_Q61K), single agent, mean ± std
Procedure: as §1, §2, §3

NCI-H1299 = NCI-H1299 (NRAS_Q61K), single agent, mean ± std
Procedure: as §1, §2, §3

NCI-H157 = NCI-H157 (KRAS_G12R), single agent, mean ± std
Procedure: as §1, §2, §3

Calu1 = Calu1 (KRAS_G12C), single agent, mean ± std
Procedure: as §1, §2, §3

MV522 = MV522 (BRAF_V600E), single agent, mean ± std
Procedure: as §1, §2, §3

NCI-H2030 = NCI-H2030 (KRAS_G12C), single agent, mean ± std
Procedure: as §1, §2, §3

SW1573 = SW1573 (KRAS_G12C), single agent, mean ± std
Procedure: as §1, §2, §3

NCI-H1355 = NCI-H1355 (KRAS_G13C), single agent, mean ± std
Procedure: as §1, §2, §3

NCI-H460 = NCI-H460 (KRAS_Q61H), single agent, mean ± std
Procedure: as §1, §2, §3

NCI-H2009 = NCI-H2009 (KRAS-G12A), single agent, mean ± std
Procedure: as §1, §2, §3

A427 = A427 (KRAS_G12D), single agent, mean ± std
Procedure: as §1, §2, §3

NCI-H1666 = NCI-H1666 (BRAF_G466V), single agent, mean ± std
Procedure: as §1, §2, §3

NCI-H650 = NCI-H650 (KRAS_Q61L), single agent, mean ± std
Procedure: as §1, §2, §3

HOP62 = HOP62 (KRAS_G12C), single agent, mean ± std
Procedure: as §1, §2, §3

NCI-H358 = NCI-H358 (KRAS_G12C), single agent, mean ± std
Procedure: as §1, §2, §3

[1] = Homo sapiens, 72 h, read-out: IC50 Single Agent Compound B
[2] = read-out: IC50 Single Agent Compound A

IC50 (NCI-H1395; [1]): > 100 nM
IC50 (NCI-H2347; [1]): > 100 nM
IC50 (NCI-H441; [1]): > 100 nM
IC50 (NCI-H1792; [1]): > 100 nM
IC50 (NCI-H1755; [1]): > 100 nM
IC50 (Calu6; Homo sapiens, Calu-6, 72 h, read-out: IC50 Single Agent Compound B): > 100 nM
IC50 (NCI-H1299; [1]): > 100 nM
IC50 (NCI-H157; [1]): > 100 nM
IC50 (Calu1; Homo sapiens, Calu-1, 72 h, read-out: IC50 Single Agent Compound B): > 100 nM
IC50 (NCI-H2030; [1]): > 10 nM
IC50 (SW1573; [1]): > 100 nM
IC50 (NCI-H1355; [1]): > 100 nM
IC50 (NCI-H460; [1]): > 70 nM
IC50 (NCI-H2009; [1]): > 100 nM
IC50 (NCI-H1666; [1]): > 100 nM
IC50 (NCI-H650; [1]): > 100 nM
IC50 (NCI-H358; [1]): > 100 nM
Compound: CO[C@H]1C[C@@H]2CC[C@@H](C)[C@@](O)(O2)C(=O)C(=O)N2CCCC[C@H]2C(=O)O[C@H]([C@H](C)C[C@@H]2CC[C@@H](OCCO)[C@H](OC)C2)CC(=O)[C@H](C)/C=C(\C)[C@@H](O)[C@@H](OC)C(=O)[C@H](C)C[C@H](C)/C=C/C=C/C=C/1C [Compound B, everolimus]
IC50 (MV522; [1]): > 100 nM
IC50 (A427; Homo sapiens, A-427, 72 h, read-out: IC50 Single Agent Compound B): > 100 nM
IC50 (HOP62; Homo sapiens, HOP-62, 72 h, read-out: IC50 Single Agent Compound B): > 100 nM

Compound: N-{3-[3-cyclopropyl-5-(2-fluoro-4-iodo-phenylamino)6,8-dimethyl;-2,4,7-trioxo-3,4,6,7-tetrahydro-2H-pyrido[4,3-d]pyrimidin-1-yl]phenyl}acetamide [Compound A]
IC50 (NCI-H1395; [2]): > 1000 nM
IC50 (NCI-H2347; [2]): 7 ± 2 nM
IC50 (NCI-H441; [2]): > 1000 nM
IC50 (NCI-H1792; [2]): 59 ± 23 nM
IC50 (NCI-H1755; [2]): 45 ± 6 nM
IC50 (Calu6; [2]): 5 nM
IC50 (NCI-H1299; [2]): 277 ± 92 nM
IC50 (NCI-H157; [2]): > 1000 nM
IC50 (Calu1; [2]): > 1000 nM
IC50 (MV522; [2]): 1 nM
IC50 (NCI-H2030; [2]): > 1000 nM
IC50 (SW1573; [2]): > 1000 nM
IC50 (NCI-H1355; [2]): 67 ± 24 nM
IC50 (NCI-H460; [2]): 37 ± 11 nM
IC50 (NCI-H2009; [2]): 204 ± 78 nM
IC50 (A427; [2]): 95 ± 68 nM
IC50 (NCI-H1666; [2]): 44 ± 46 nM
IC50 (NCI-H650; [2]): 4 ± 2 nM
IC50 (HOP62; [2]): > 1000 nM
IC50 (NCI-H358; [2]): 31 ± 10 nM

Source: patent publication US20170065593A1, “Combination” (Novartis AG, priority 2009, published 2017)
